Data on four molecules can be found in patent US20080009451A1, “Applications of kidney secreted bone growth factor and pharmaceutical use of flavonol and flavonol glycosides for stimulating the secretion of kidney secreted bone growth factor” (priority 2005, published 2008).

The test system of assay [1] is opossum kidney (OK) cell. The assay is described as follows: Renal tubular (OK) cell proliferation, CellTiter 96 at OD570. It is filed as cell-based. The settings on record: compound added to OK cells, 0-60 nM (0-79 nM) or various concentrations, three days incubation (24 hours in Example 3.2). How it is done: Flavonol Increased Renal Tubular Cell Proliferation Ok cells at 1×10^4/ml (0.1 ml) were added into 96 wells plate. Several flavonol ? Fisetin, ? Kaempferol, ? quercetin a ? ? icariin or the control flavonoid (which are not flavonol) such as apigenin and kaempferol-3-methyl ether were added to make the final concentration at 0-60 nM. (0-79 nM)
After three days incubation, the cell growth was examined with CellTiter 96 (Non-Radioactive Cell Proliferation Assay kit) (Promega) at OD570 nm. The higher OD, the higher the numbers of living cells. (FIG. 2.)
OK cell, MC 3T3 E1 and HHF cells at 2×10^4/ml (0.1 ml) were added into 96 well plates, with various concentration of kaempferol was applied. After the cells were cultured for 3 days, cell growth was examined.
Preparation of OKM and CM: OK cells at 2×10^4/ml (0.1 ml) mixed with various concentrations of kaempferol were incubated in 96 well plate. The medium made of the same condition as above without OK cells was also incubated in the 96 well plates. After 24 hour, the mediums were collected. The OK cell growth was examined.

Assay [2] relates to MC 3T3 E1 cell (osteoblast). Nature of the assay: Osteoblast proliferation in OK cell conditioned medium (OKM). It is filed as cell-based. As to conditions: OK cells incubated 24 hours with compound, 80 μl medium on MC 3T3 E1, 3 days. How it is done:
In this example, OK cells were used as the kidney tubular cell. OK cells at 6×10^4ml (3 ml) were added into 6 wells plate and various concentrations of flavonol, flavonol glycosides, apigenin and isokaempferol were applied. At the same time, the control culture medium (CM) with the same condition as above but without cells was prepared. After 24 hours incubation, the medium was collected for osteoblast culture. The OK cell growth was examined as discussed above. In this example, the osteoblast was the MC 3T3 E1 cell. MC 3T3 E1 at 1×10^5/ml (20 μl) was added into 96 wells plate. Additionally, 80 μL of OKM or CM were recruited. After 3 days incubation, the osteoblast growth was examined as discussed above. […] OK cells at 2×10^4/ml (0.1 ml) mixed with various concentrations of kaempferol were incubated in 96 well plate. The medium made of the same condition as above without OK cells was also incubated in the 96 well plates. After 24 hour, the mediums were collected. The OK cell growth was examined. MC 3T3 E1 cells at 1×10^5/ml (20 μl) were applied into 96 well plate along with OKM and CM (80 μl). After 3 days incubation, the cell numbers were examined. The preparation of OKM and CM: OK cells at 6×10^4/ml (3 ml) were incubated in 6 well plates over night. After the medium was removed, the fresh medium with or without 70 nM kaempferol was added. The control medium (CM) was prepared under the same condition, without OK cells. After incubation for 24 hour, all medium were collected for MC 3T3 E1 and HFF cell growth experiments. MC 3T3 E1 and HFF cell at 1×10^5/ml were added (20 μl) into 96 well plates. In addition, 80 μl of OKM, CM and fresh culture medium with and without kaempferol were applied.

In assay [3] the test system is human heart fibroblast (HHF/HFF). Nature of the assay: Fibroblast proliferation in OK cell conditioned medium (OKM). Type of assay: cell-based. As to conditions: OK cells incubated 24 hours with compound; medium on human heart fibroblast; 3 days. How it is done: In this example, OK cells were used as the kidney tubular cell. OK cells at 6×10^4ml (3 ml) were added into 6 wells plate and various concentrations of flavonol, flavonol glycosides, apigenin and isokaempferol were applied. At the same time, the control culture medium (CM) with the same condition as above but without cells was prepared. After 24 hours incubation, the medium was collected for osteoblast culture. The OK cell growth was examined as discussed above. The preparation of OKM and CM: OK cells at 6×10^4/ml (3 ml) were incubated in 6 well plates over night. After the medium was removed, the fresh medium with or without 70 nM kaempferol was added. The control medium (CM) was prepared under the same condition, without OK cells. After incubation for 24 hour, all medium were collected for MC 3T3 E1 and HFF cell growth experiments. MC 3T3 E1 and HFF cell at 1×10^5/ml were added (20 μl) into 96 well plates. In addition, 80 μl of OKM, CM and fresh culture medium with and without kaempferol were applied.

In assay [4] the test system is MC 3T3 E1 cell (osteoblast). Nature of the assay: Direct effect of compound on osteoblast proliferation. It is filed as cell-based. The settings on record: medium incubated without kidney cells; 70 nM or various concentrations; 3 days. How it is done:
(§1) OK cell, MC 3T3 E1 and HHF cells at 2×10^4/ml (0.1 ml) were added into 96 well plates, with various concentration of kaempferol was applied. After the cells were cultured for 3 days, cell growth was examined. The preparation of OKM and CM: OK cells at 6×10^4/ml (3 ml) were incubated in 6 well plates over night. After the medium was removed, the fresh medium with or without 70 nM kaempferol was added. The control medium (CM) was prepared under the same condition, without OK cells. After incubation for 24 hour, all medium were collected for MC 3T3 E1 and HFF cell growth experiments. MC 3T3 E1 and HFF cell at 1×10^5/ml were added (20 μl) into 96 well plates. In addition, 80 μl of OKM, CM and fresh culture medium with and without kaempferol were applied.

The subject of assay [5] is HHF cells (human heart fibroblast). Nature of the assay: Direct effect of compound on fibroblast proliferation. As to conditions: medium incubated without kidney cells; 70 nM kaempferol; 3 days. Type of assay: cell-based. How it is done:
as §1

Assay [6] relates to BMPR II. The assay is described as follows: BMPR II on OK cells, immunostain and Western blot. It is filed as cell-based, opossum. The text has this:
BMPR I was not found in OK cells sample, BMPR II was found on OK cell. […] Both FIGS. 6A and 6B indicate that kaempferol increases the quantity of BMPR II on OK cell.
On the technique in general: A western blot detects proteins with antibodies after separation by electrophoresis.

The subject of assay [7] is BMP7. Nature of the assay: BMP7 in kaempferol conditioned OKM, immune-precipitation and Western blot. The settings on record: Western blot; not been repeated yet. It is filed as cell-based, opossum. The text has this:
(§2) Detail of Immune-Precipitation and Detail of Western Blot Used Standard Methods and Anti-BMP 2/4 and 7.

Assay [8] deals with BMP2/4. Nature of the assay: BMP2/4 in kaempferol conditioned OKM, immune-precipitation and Western blot. Type of assay: cell-based, opossum. The settings on record: Western blot; not been repeated yet.
Text: as §2

In assay [9] the test system is P63. The assay is described as follows: P63 (63 kDa protein) in kaempferol conditioned OKM, over-exposed anti-BMP2/4 Western blot. Type of assay: cell-based, opossum. As to conditions: over-exposed film; not been repeated yet. The source says: Detail of Immune-Precipitation and Detail of Western Blot Used Standard Methods and Anti-BMP 2/4 and 7. 3). […] According to the instruction from the manufacture, anti-BMP2/4 antibody may react with BMP8, 9 and 10 or other proteins. The P63 may be BMP 8, 9, 10 or another protein related to the BMP2/4.

The test system of assay [10] is MC 3T3 E1 cell (osteoblast). The assay is described as follows: Osteoblast proliferation in human kidney tubular cell (HK-2) conditioned medium (HKM). The settings on record: HK-2 cells, 70 nM kaempferol, 24 hours; medium on MC 3T3 E1 for 3 days. Type of assay: cell-based. The method, then:
Human kidney tubular cells (HK-2) with the concentration at 1×10^5/ml (1 mL) grew in 24 well plate overnight. The cells in the wells were washed by 1 mL of PBS three times. Fresh culture medium (80 μL) without FBS but contained 0 and 70 nM kaempferol were added. The same medium without cells also prepared as above. After the samples were cultured for 24 hours, the medium was collected and named respectively 70 […] 0CM. They were used for osteoblast and fibroblast culture. MC 3T3 E1 and HFF cell at 1×10^5/ml were added (20 μl) into 96 wells plate. In addition, 80 μl of 70 […] 0CM were applied.

The conditions of assay [11]: animal models; cited from earlier work.
For assay [12] the following is noted: acute renal ischemia, unilateral uretheral obstruction, diabetic nephropathy, lupus nephritis models; cited from earlier work.

“Also recorded” adds a separate entry of the source.

For the molecule `O=c1c(O)c(-c2ccc(O)cc2)oc2cc(O)cc(O)c12` [Kaempferol], the “OK cell proliferation (optic density)” value was “only increased OK cell proliferation” in assay [1] and “significantly increased; also recorded: showed dose response aspect” in assay [1] (listed as kaempferol). Also, the “osteoblast (MC 3T3 E1) proliferation in compound conditioned-OKM compared with control OKM” value (shortened to “osteoblast … compared with control OKM”) is given as “increasing osteoblast proliferation with a dose response manner; also recorded: additionally promoted MC 3T3 E1 cell proliferation” in assay [2] and “significantly increased compared with that in the control OKM” in [2] (listed as kaempferol). Moreover, in [3], the “fibroblast proliferation in compound conditioned-OKM” value (“fibroblast proliferation” below) is on record as “also did not promote HHF cell proliferation”. In addition, the “MC 3T3 E1 proliferation in control medium (CM) or fresh medium containing compound” value in assay [4] was “did not promote MC 3T3 E1 and HHF cell proliferation”. For the same molecule, in [5], the “fibroblast (HHF) proliferation in control medium (CM) or fresh medium containing compound” value was “did not increase human fibroblast proliferation; also recorded: did not promote MC 3T3 E1 and HHF cell proliferation”. The “quantity of BMPR II on OK cells (Western blot)” value in [6] (Western blot with anti-BMPR II) is “increased the quantity of BMPR II on OK cells”. In addition, in [6] (immunostain with anti-BMP receptor II), the “density of BMPR II on OK cells (immunostain)” value was “increased the density of BMPR II on OK cells”. For the same molecule, the “quantity of BMP7 in OKM” value in assay [7] is on record as “increased by dose response of kaempferol; also recorded: increased in dose response to kaempferol concentration”. For the same molecule, in assay [8], the “quantity of BMP2/4 in OKM” value is recorded as “increased by dose response of kaempferol”. Also, in assay [9], the “quantity of P63 in OKM” value is recorded as “increased with dose response of kaempferol; also recorded: also increased with the dose of kaempferol”. The “MC 3T3 E1 proliferation in kaempferol conditioned HKM compared with 0HKM” value in assay [10] is listed as “increased the promotion; also recorded: additionally increases the promotion”.

Consider `COc1c(-c2ccc(O)cc2)oc2cc(O)cc(O)c2c1=O` [isokaempferol, kaempferol-3-methyl ether], for which the “OK cell proliferation (optic density)” value in [1] is on record as “did not increase OK cell proliferation”; in [1] (listed as kaempferol-3-methyl ether), “showed no effect”. Also, the “osteoblast … compared with control OKM” value in assay [2] was “did not increase osteoblast proliferation”. In addition, the “fibroblast proliferation” value in assay [3] is “do not increase human heard fibroblast proliferation”.

`O=c1cc(-c2ccc(O)cc2)oc2cc(O)cc(O)c12` [Apigenin, apigenin]: the figures for the “OK cell proliferation (optic density)” value in assay [1] and in assay [1] (listed as apigenin) were “did not increase OK cell proliferation” and “showed no effect”, respectively. Moreover, the “osteoblast … compared with control OKM” value in assay [2] is on record as “did not increase osteoblast proliferation”. Besides, in assay [3], the “fibroblast proliferation” value was “do not increase human heard fibroblast proliferation”.

B1: BMP-7: Bone Morphogenic Protein 7, secreted protein (protein, UniProt P18075 293-431, looked up)
Bone morphogenetic protein 7: STGSKQRSQNRSKTPKNQEALRMANVAENSSSDQRQACKKHELYVSFRDLGWQDWIIAPEGYAAYYCEGECAFPLNSYMNATNHAIVQTLVHFINPETVPKPCCAPTQLNAISVLYFDDSSNVILKKYRNMVVRACGCH
B1: the “effect on osteoporosis associated with renal failure” value in assay [11] is given as “benefit”. Also, the “prevention of renal failure” value in assay [12] was “prevent renal failure”.
